This is an account of results in US8367838B2, “Amines or amino alcohols as GLYT1 inhibitors” (Hoffmann-La Roche Inc., priority 2009, dated 2013).

Counter-ions that a name gives are not always drawn.

For this assay, the target named is T1, mGlyT-1b (Mus musculus, UniProt P28571).
T1 construct: host or cells: Flp-in-CHO
T1 sequence (P28571 1-651 isoform P28571-2): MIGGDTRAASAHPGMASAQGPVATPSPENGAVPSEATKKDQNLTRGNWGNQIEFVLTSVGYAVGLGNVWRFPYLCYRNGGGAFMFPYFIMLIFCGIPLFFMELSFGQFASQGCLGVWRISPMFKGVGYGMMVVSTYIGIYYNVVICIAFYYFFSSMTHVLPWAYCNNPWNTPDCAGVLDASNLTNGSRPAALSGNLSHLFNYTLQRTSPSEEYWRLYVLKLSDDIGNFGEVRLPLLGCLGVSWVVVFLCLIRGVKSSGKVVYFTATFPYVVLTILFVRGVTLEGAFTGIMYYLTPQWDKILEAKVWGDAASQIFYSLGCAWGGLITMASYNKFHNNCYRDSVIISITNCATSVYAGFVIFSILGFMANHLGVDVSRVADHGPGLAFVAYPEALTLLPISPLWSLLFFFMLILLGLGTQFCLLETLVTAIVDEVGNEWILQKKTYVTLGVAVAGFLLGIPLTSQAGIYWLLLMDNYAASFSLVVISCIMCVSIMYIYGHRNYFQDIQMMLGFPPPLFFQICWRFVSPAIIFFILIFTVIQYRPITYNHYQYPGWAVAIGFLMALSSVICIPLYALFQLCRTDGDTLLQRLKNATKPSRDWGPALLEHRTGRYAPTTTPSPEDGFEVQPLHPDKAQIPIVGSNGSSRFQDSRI
Description: Glycine uptake inhibition assay (mGlyT-1b), [3H]-glycine uptake in transfected Flp-in-CHO cells. Type of assay: cell-based. To be noted: Flp-in-CHO cells transfected with mGlyT-1b cDNA; [3H]-glycine 60 nM and 25 μM non-radioactive glycine; 20 min preincubation at 22° C.; read-out: IC50 (μM) at GlyT-1; Ic50 (hglyt1b). As for the experimental part: Nutrient mixture F-12 (Gibco Life-technologies), fetal bovine serum (FBS) 5%, (Gibco life technologies), Penicillin/Streptomycin 1% (Gibco life technologies), Hygromycin 0.6 mg/ml (Gibco life technologies), Glutamine 1 mM Gibco life technologies).
150 mM NaCl, 10 mM Hepes-Tris, pH 7.4, 1 mM CaCl2, 2.5 mM KCl, 2.5 mM MgSO4, 10 mM (+) D-glucose. Flp-in™-CHO (Invitrogen Cat n° R758-07) cells stably transfected with mGlyT1b cDNA.
Glycine Uptake Inhibition Assay (mGlyT-1b)
On day 1 mammalian cells, (Flp-in™-CHO), transfected with mGlyT-1b cDNA, were plated at the density of 40,000 cells/well in complete F-12 medium, without hygromycin in 96-well culture plates. On day 2, the medium was aspirated and the cells were washed twice with uptake buffer (UB). The cells were then incubated for 20 min at 22° C. with either (i) no potential competitor, (ii) 10 mM non-radioactive glycine, (iii) a concentration of a potential inhibitor. A range of concentrations of the potential inhibitor was used to generate data for calculating the concentration of inhibitor resulting in 50% of the effect (e.g. IC50, the concentration of the competitor inhibiting glycine uptake of 50%). A solution was then immediately added containing [^3H]-glycine 60 nM (11-16 Ci/mmol) and 25 μM non-radioactive glycine. The plates were incubated with gentle shaking and the reaction was stopped by aspiration of the mixture and washing (three times) with ice-cold UB. The cells were lysed with scintillation liquid, shaken 3 hours and the radioactivity in the cells was counted using a scintillation counter.
Take `N[C@@H](c1ccc(Cl)c(Cl)c1)[C@H](O)c1ccc(OCC2CC2)cc1` (racemic) [Example 49, rac-erythro-[2-Amino-1-(4-cyclopropylmethoxy-phenyl)-2-(3,4-dichloro-phenyl)-ethanol]: the IC50 stood at 0.533 µM.
In the case of `NC(=O)c1cccc(-c2ccc([C@@H](O)[C@@H](N)c3ccc(Cl)c(Cl)c3)cc2)c1` (racemic) [Example 104, rac-erythro-4′-[2-Amino-2-(3,4-dichloro-phenyl)-1-hydroxy-ethyl]-biphenyl-3-carboxylic acid amide], the concentration for half-maximal inhibition (IC50) came out at 0.056 µM.
Under `COc1cncc(-c2ccc([C@@H](O)[C@@H](N)c3ccc(Cl)cc3)cc2)c1` (racemic) [Example 64, rac-erythro-2-Amino-2-(4-chloro-phenyl)-1-[4-(5-methoxy-pyridin-3-yl)-phenyl]-ethanol] stands 0.138 µM.
On to `Cc1cc(OC(C)C)ncc1[C@@H](O)[C@@H](N)c1ccc(Cl)c(Cl)c1` (racemic) [Example 30, rac-erythro-[2-Amino-2-(3,4-dichloro-phenyl)-1-(6-isopropoxy-4-methyl-pyridin-3-yl)-ethanoldihydrochloride], for which the IC50 was 0.577 µM.
Next, `N[C@@H](c1ccc(Cl)cc1)[C@H](O)c1ccc(OC2CCCCC2)cc1` (racemic) [Example 53, rac-erythro-2-Amino-2-(4-chloro-phenyl)-1-(4-cyclohexyloxy-phenyl)-ethanol]: 1.03 µM; `CN[C@@H](c1ccc(Cl)c(Cl)c1)[C@H](O)c1ccc(-c2cncc(F)c2)cc1` (racemic) [Example 39, rac-erythro-[2-(3,4-Dichloro-phenyl)-1-[4-(5-fluoro-pyridin-3-yl)-phenyl]-2-methylamino-ethanol hydrochloride]: 0.208 µM.
Take `CS(=O)(=O)c1cccc(-c2ccc([C@@H](O)[C@@H](N)c3ccc(Cl)cc3)cc2)c1` (racemic) [Example 62, rac-erythro-2-Amino-2-(4-chloro-phenyl)-1-(3′-methanesulfonyl-biphenyl-4-yl)-ethanol]: the concentration for half-maximal inhibition (IC50) was 0.068 µM.
Turning to `CC(CO)(CCl)COc1ccc([C@@H](O)[C@@H](N)c2ccc(Cl)c(Cl)c2)cc1` (mixture of isomers) [Example 43, rac-erythro-[2-Amino-2-(3,4-dichloro-phenyl)-1-hydroxy-ethyl]-phenoxy]-2-chloromethyl-2-methyl-propan-1-ol hydrochloride], the IC50 is 0.053 µM.
Next, `CS(=O)(=O)c1cccc(-c2ccc([C@@H](O)[C@@H](N)c3ccc(Cl)c(Cl)c3)c(F)c2)c1` (single isomer, unassigned) [Example 6, (1R,2S or 1S,2R)-2-Amino-2-(3,4-dichloro-phenyl)-1-(3-fluoro-3′-methanesulfonyl-biphenyl-4-yl)-ethanol hydrochloride]: 0.012 µM.
As for `N[C@@H](c1ccc(Cl)cc1)[C@H](O)c1ccc(-c2ccccc2Cl)cc1` (racemic) [Example 73, rac-erythro-2-Amino-1-(2′-chloro-biphenyl-4-yl)-2-(4-chloro-phenyl)-ethanol], the IC50 was found to be 0.462 µM.
As for `N[C@@H](c1ccc(Cl)cc1)[C@H](O)c1ccc(OC2CCOCC2)cc1` (racemic) [Example 59, rac-erythro-2-Amino-2-(4-chloro-phenyl)-1-[4-(tetrahydro-pyran-4-yloxy)-phenyl]-ethanol], the IC50 is 0.054 µM.
Take `N[C@@H](c1ccc(Cl)cc1)[C@H](O)c1ccc(OC2CCCOC2)cc1` (mixture of isomers) [Example 9, rac-erythro-[2-Amino-2-(4-chloro-phenyl)-1-[4-(tetrahydro-pyran-3-yloxy)-phenyl]-ethanol]: the IC50 was determined as 0.138 µM.
For the molecule `N[C@@H](c1ccc(Cl)c(Cl)c1)[C@H](O)c1ccc(Oc2ccccc2)cc1` (racemic) [Example 100, rac-erythro-2-Amino-2-(3,4-dichloro-phenyl)-1-(4-phenoxy-phenyl)-ethanol], the half-maximal inhibitory concentration (IC50) is 0.323 µM.

A word on the IC50: it is the concentration at which inhibition is half-maximal.
